Assay results reported in patent US20250221405A1, “ROOT NODULE FORMATION-PROMOTING COMPOSITION, AND ROOT HAIR FORMATION-PROMOTING COMPOSITION” (KANEKA CORPORATION, priority 2022, published 2025).

Experiments:
[1] = test system: Japanese mustard spinach (Haru no Senbatsu); assay: Experimental Example 5: foliar application, microscopic observation of root hair; type: in vivo; set-up: key: those with a significant root hair increase observed were evaluated as AA; those with a root hair increase observed were evaluated as BB; those with no root hair increase observed were evaluated as CC; those with an overall or partial root hair decrease observed were evaluated as DD
Experimental: An observation tank formed with ½ MS agar medium (0.8% agar) was prepared in an acrylic tank. Japanese mustard spinach (Haru no Senbatsu) was seeded near the surface of the observation tank. After seeding, the Japanese mustard spinach was cultivated in an incubator set in a light period (6:00-18:00, temperature 26° C., illuminance 120 μmol/m^2·s) and a dark period (18:00-6:00, temperature 18° C.). Twelve to fourteen days after the seeding, the following liquid (a composition for promoting root hair formation) was applied on the leaf surfaces of the plant body (foliar application) so as not to drip on the agar in each of the following treatments. […] A plurality of experiments were conducted by changing the date of seeding, the date of foliar application, the date of observation, and the type of the composition for promoting root hair formation and the like. Tables 5 to 9 show the composition for promoting root hair formation, the outline of operation and the observation results of root hair.

[2] = test system: soybeans (Fukuyutaka); assay: Experimental Example 1: seed coating, number of root nodules; type: in vivo, soybean; conditions: Table 1-1
Experimental: A solution of SF, SL, or RL dissolved in water (a composition for promoting root nodule formation) as the following amount in each of the following treatments was prepared. The seeds of soybeans (Fukuyutaka) were coated using the solution in an amount of 800 μL/100 g seed to obtain coated seeds.
A 9 cm poly pot was filled with culture soil and seeded with three coated seeds in each pot.
After seeding, the coated seeds were cultivated in a greenhouse set at 28° C. during the day (14h) and 18° C. at night (10h).
Seven days after the seeding, the soybeans in each pot were thinned to one plant, and each pot was irrigated with 4.3 ml of a mixture of rhizobium materials (rhizobium and azospirillum) mixed with water at a proportion of 10 g/L.
Twenty-one days after the irrigation, the roots were washed with water so as not to remove root nodules, the culture soil was removed, and then, the root nodules formed on the roots were collected.
After the seeding, each pot was fertilized with ½ Hoagland solution once a week. In addition, experiments were conducted on eight pots (eight plants) in each treatment.
A plurality of experiments were conducted by changing the type of the composition for promoting root nodule formation and the like. Tables 1-1 and 1-2 show the date of seeding, the date of irrigating, the date of investigating the number of root nodules, the amount of SF, SL, or RL in the composition for promoting root nodule formation, and the investigation result of the number of root nodules. Note that the number of root nodules is indicated by a relative value with Tl taken as 100, with a numerical value in parentheses indicating the average number of root nodules actually measured (pieces/plant).

[3] = test system: Japanese mustard spinach (Haru no Senbatsu); assay: Experimental Example 6: SF in agar medium, microscopic observation of root hair; type: in vivo; set-up: key: those with a significant root hair increase observed were evaluated as AA; those with a root hair increase observed were evaluated as BB; those with no root hair increase observed were evaluated as CC; those with an overall or partial root hair decrease observed were evaluated as DD; conditions: Table 10, eight days after seeding
Experimental: An observation tank (a composition for promoting root hair formation) formed by adding 1% SF aqueous solution to ½ MS agar medium (0.8% agar) so as to obtain the following dilution factor was prepared in an acrylic tank. Japanese mustard spinach (Haru no Senbatsu) was seeded near the surface of the observation tank.
After seeding, the Japanese mustard spinach was cultivated in an incubator set in a light period (6:00-18:00, temperature 26° C., illuminance 120 μmol/m^2·s) and a dark period (18:00-6:00, temperature 18° C.).
Eight days after the seeding, the amount of root hair at a point of 1 cm from the tip of the roots was observed under a microscope (microscopic observation). In the T1 (Control), ½ MS agar medium without mixing 1% SF aqueous solution in the medium was used as the observation tank.
As a result of the observation, compared with the T1, those with a significant root hair increase observed were evaluated as AA, those with a root hair increase observed were evaluated as BB, those with no root hair increase observed were evaluated as CC, and those with an overall or partial root hair decrease observed were evaluated as DD.
A plurality of experiments were conducted by changing the date of seeding, the date of observation, and the type of the composition for promoting root hair formation and the like. […]

[4] = seed coating 0.1 g/t seed (diluted 80000 times), 21 days after rhizobium irrigation
[5] = seed coating 1 g/t seed (diluted 8000 times)
[6] = seed coating 5 g/t seed (diluted 1600 times)
[7] = seed coating 10 g/t seed (diluted 800 times)
[8] = seed coating 25 g/t seed (diluted 320 times)
[9] = seed coating 50 g/t seed (diluted 160 times)

surfactin Na [SF]
Observation Result (root hair) ([1]; Table 5, aqueous solution diluted 1000 times, compared with T1): BB | Observation Result (root hair) ([1]; Table 5, aqueous solution diluted 2000 times): AA | Observation Result (root hair) ([1]; Table 5, aqueous solution diluted 5000 times): AA | Number of Root Nodules, average number actually measured [2, 4]: 15.4 pieces/plant | Number of Root Nodules, relative value with T1 taken as 100 [2, 4]: 105 | Number of Root Nodules, average number actually measured [2, 5]: 16.6 pieces/plant | Number of Root Nodules, relative value with T1 taken as 100 [2, 5]: 114 | Number of Root Nodules, average number actually measured [2, 6]: 16.6 pieces/plant | Number of Root Nodules, relative value with T1 taken as 100 [2, 6]: 114 | Number of Root Nodules, average number actually measured [2, 7]: 15.4 pieces/plant | Number of Root Nodules, relative value with T1 taken as 100 [2, 7]: 105 | Number of Root Nodules, average number actually measured [2, 8]: 16.8 pieces/plant | Number of Root Nodules, relative value with T1 taken as 100 [2, 8]: 115 | Number of Root Nodules, average number actually measured [2, 9]: 17.3 pieces/plant | Number of Root Nodules, relative value with T1 taken as 100 [2, 9]: 118 | Observation Result (root hair) ([3]; agar medium with SF diluted 5000 times): AA | Observation Result (root hair) ([3]; agar medium with SF diluted 10000 times): BB
